What was measured:
tropical spiderwort = experiment: Test E pre-/postemergence herbicide test; format: in vivo, Commelina benghalensis; settings: Preemergence
Description: (§1) Seeds of plant species selected from bipinnate beggarticks (Bidens bipinnata L.), hairy beggarticks (Bidens radiata Thuill.), bermudagrass (Cynodon dactylon (L.) Pers.), Surinam grass (Urochloa decumbens (Staph) R. D. Webster, previously named Brachiaria decumbens Stapf), large crabgrass (Digitaria sanguinalis (L.) Scop.), green foxtail (Setaria viridis (L.) P. Beauv.), goosegrass (Eleusine indica (L.) Gaertn.), johnsongrass (Sorghum halepense (L.) Pers.), kochia (Kochia scoparia (L.) Schrad.), pitted morningglory (Ipomoea lacunosa L.), purple nutsedge (Cyperus rotundus L.), common ragweed (Ambrosia elatior L.), mustard (Brassica nigra (L.) W. D. J. Koch), guineagrass (Panicum maximum Jacq.), dallisgrass (Paspalum dilatatum Poir.), barnyardgrass (Echinochloa crus-galli (L). P. Beauv.), southern sandbur (Cenchrus echinatus L.), common sowthistle (Sonchus oleraceous L.), prickly sida (Sida spinosa L.), Italian ryegrass (Lolium multiflorum Lam.), common purslane (Portulaca oleracea L.), broadleaf signalgrass (Brachiaria platyphylla (Griseb.) Nash), common groundsel (Senecio vulgaris L.), common chickweed (Stellaria media (L.) Vill/Cyr.), tropical spiderwort (Commelina benghalensis L.), annual bluegrass (Poa annua L.), downy bromegrass (Bromus tectorum L.), itchgrass (Rottboellia cochinchinensis (L.) L.f.), quackgrass (Elytrigia repens (L.) Nevski), Canada horseweed (Erigeron Canadensis L.), field bindweed (Convolvulus arvensis L.), spotted spurge (Euphorbia maculata L.), common mallow (Malva sylvestris (=s silvestris) L.), and Russian thistle (Salsola kali L. ssp. Ruthenica (Iljin) Soo) were planted and treated preemergence with test chemicals formulated in a non-phytotoxic solvent mixture which included a surfactant.
(§2) At the same time, plants selected from these weed species were treated with postemergence applications of some of the test chemicals formulated in the same manner. Plants ranged in height from 2 to 18 cm (1- to 4-leaf stage) for postemergence treatments. Treated plants and controls were maintained in a greenhouse for 12 to 14 days, after which time all species were compared to controls and visually evaluated. Plant response ratings, summarized in Table E, are based on a scale of 0 to 100 where 0 is no effect and 100 is complete control. A dash (-) response means no test result.

Russian thistle = experiment: Test E pre-/postemergence herbicide test; format: in vivo, Salsola kali; settings: Preemergence
Description: as §1, §2

goosegrass = experiment: Test E pre-/postemergence herbicide test; format: in vivo, Eleusine indica; settings: Preemergence
Description: as §1, §2

pitted morningglory = experiment: Test E pre-/postemergence herbicide test; format: in vivo, Ipomoea lacunosa; settings: Preemergence
Description: as §1, §2

johnsongrass = experiment: Test E pre-/postemergence herbicide test; format: in vivo, Sorghum halepense; settings: Preemergence
Description: as §1, §2

common mallow = experiment: Test E pre-/postemergence herbicide test; format: in vivo, Malva sylvestris; settings: Preemergence
Description: as §1, §2

downy bromegrass = experiment: Test E pre-/postemergence herbicide test; format: in vivo, Bromus tectorum; settings: Preemergence
Description: as §1, §2

purple nutsedge = experiment: Test E pre-/postemergence herbicide test; format: in vivo, Cyperus rotundus; settings: Preemergence
Description: as §1, §2

blackgrass = experiment: Test C postemergence herbicide test; format: in vivo, Alopecurus myosuroides
Procedure, shortened: (§3)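 Postemergence sprays applied to plants 2 to 18 cm tall (1- to 4-leaf stage); paddy species grown to 2-leaf stage under flooding. After 12 to 14 days in greenhouse, visual rating versus untreated controls on 0–100 scale (0 no effect, 100 complete control).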

wheat = experiment: Test C postemergence herbicide test; format: in vivo, Triticum aestivum; settings: postemergence, scale 0 to 100
Procedure, shortened: as §3

winter barley = experiment: Test C postemergence herbicide test; format: in vivo, Hordeum vulgare
Procedure, shortened: as §3

canarygrass = experiment: Test C postemergence herbicide test; format: in vivo, Phalaris minor
Procedure, shortened: as §3

wild oat = experiment: Test C postemergence herbicide test; format: in vivo, Avenafatua; settings: postemergence, scale 0 to 100
Procedure, shortened: as §3

common chickweed = experiment: Test E pre-/postemergence herbicide test; format: in vivo, Stellaria media; settings: Preemergence
Description: as §1, §2

[1] = 250 g ai/ha, scale 0 (no effect) to 100 (complete control)
[2] = 375 g ai/ha, scale 0 (no effect) to 100 (complete control)
[3] = 500 g ai/ha, scale 0 (no effect) to 100 (complete control)
[4] = Postemergence, 250 g ai/ha, scale 0 to 100, 0 no effect, 100 complete control
[5] = postemergence, 125 g ai/ha, scale 0 to 100
[6] = postemergence, 31 g ai/ha, scale 0 to 100
[7] = postemergence, 62 g ai/ha, scale 0 to 100
[8] = Postemergence, 125 g ai/ha, scale 0 to 100, 0 no effect, 100 complete control
[9] = postemergence, 62 g ai/ha, scale 0 to 100 (0 no effect, 100 complete control)

Compound: CCc1nn(C(C)(C)C)cc1C(=O)Nc1cc(C(=O)N(C)C)ccn1 [Compound 293]
- Plant response rating, Spiderwort (tropical spiderwort; 125 g ai/ha, scale 0 to 100): 60
- Plant response rating, Spiderwort (tropical spiderwort; [1]): 80
- Plant response rating, Spiderwort (tropical spiderwort; [2]): 80
- Plant response rating, Spiderwort (tropical spiderwort; [3]): 90
- Plant response rating, Thistle (Russian thistle; 125 g ai/ha, scale 0 to 100): 60
- Plant response rating, Thistle (Russian thistle; [2]): 95
- Plant response rating, Thistle (Russian thistle; [3]): 100
- Plant response rating, Goosegrass (goosegrass; 125 g ai/ha, scale 0 to 100): 90
- Plant response rating, Goosegrass (goosegrass; [1]): 90
- Plant response rating, Goosegrass (goosegrass; [2]): 95
- Plant response rating, Goosegrass (goosegrass; [3]): 100
- Plant response rating, Morningglory (pitted morningglory; 125 g ai/ha, scale 0 to 100): 10
- Plant response rating, Morningglory (pitted morningglory; [1]): 40
- Plant response rating, Morningglory (pitted morningglory; [2]): 50
- Plant response rating, Morningglory (pitted morningglory; [3]): 90
- Plant response rating, Johnsongrass (johnsongrass; 125 g ai/ha, scale 0 to 100): 10
- Plant response rating, Johnsongrass (johnsongrass; [1]): 60
- Plant response rating, Johnsongrass (johnsongrass; [2]): 70
- Plant response rating, Johnsongrass (johnsongrass; [3]): 85
- Plant response rating, Mallow (common mallow; 125 g ai/ha, scale 0 to 100): 40
- Plant response rating, Mallow (common mallow; [1]): 50
- Plant response rating, Mallow (common mallow; [2]): 80
- Plant response rating, Mallow (common mallow; [3]): 85
- Plant response rating, Bromegrass, Downy (downy bromegrass; [1]): 80
- Plant response rating, Bromegrass, Downy (downy bromegrass; [3]): 80
- Plant response rating, Nutsedge, Purple (purple nutsedge; [1]): 40
- Plant response rating, Nutsedge, Purple (purple nutsedge; [2]): 50
- Plant response rating, Nutsedge, Purple (purple nutsedge; [3]): 60

Compound: CCc1nn(C(C)(C)C)nc1C(=O)Nc1cccc(C(=O)N(C)CC)c1 [Compound 384]
- Plant response rating, Blackgrass (blackgrass; [4]): 45
- Plant response rating, Blackgrass (blackgrass; [5]): 45
- Plant response rating, Blackgrass (blackgrass; [6]): 45
- Plant response rating, Blackgrass (blackgrass; [7]): 45
- Plant response rating, Spiderwort (tropical spiderwort; 125 g ai/ha, scale 0 to 100): 30
- Plant response rating, Spiderwort (tropical spiderwort; [1]): 60
- Plant response rating, Spiderwort (tropical spiderwort; [3]): 95
- Plant response rating, Wheat (wheat; 125 g ai/ha): 20
- Plant response rating, Wheat (wheat; 62 g ai/ha): 10
- Plant response rating, Goosegrass (goosegrass; 62 g ai/ha, scale 0 to 100): 60
- Plant response rating, Goosegrass (goosegrass; 125 g ai/ha, scale 0 to 100): 80
- Plant response rating, Goosegrass (goosegrass; [1]): 85
- Plant response rating, Goosegrass (goosegrass; [3]): 95
- Plant response rating, Barley, Winter (winter barley; [8]): 35
- Plant response rating, Barley, Winter (winter barley; [4]): 35
- Plant response rating, Barley, Winter (winter barley; [6]): 0
- Plant response rating, Barley, Winter (winter barley; [9]): 10
- Plant response rating, Morningglory (pitted morningglory; 62 g ai/ha, scale 0 to 100): 10
- Plant response rating, Morningglory (pitted morningglory; 125 g ai/ha, scale 0 to 100): 60
- Plant response rating, Morningglory (pitted morningglory; [1]): 80
- Plant response rating, Morningglory (pitted morningglory; [3]): 90
- Plant response rating, Johnsongrass (johnsongrass; 62 g ai/ha, scale 0 to 100): 40
- Plant response rating, Johnsongrass (johnsongrass; 125 g ai/ha, scale 0 to 100): 75
- Plant response rating, Johnsongrass (johnsongrass; [1]): 80
- Plant response rating, Johnsongrass (johnsongrass; [3]): 85
- Plant response rating, Mallow (common mallow; 62 g ai/ha, scale 0 to 100): 50
- Plant response rating, Mallow (common mallow; 125 g ai/ha, scale 0 to 100): 70
- Plant response rating, Mallow (common mallow; [1]): 70
- Plant response rating, Mallow (common mallow; [3]): 95
- Plant response rating, Bromegrass, Downy (downy bromegrass; 62 g ai/ha, scale 0 to 100): 20
- Plant response rating, Bromegrass, Downy (downy bromegrass; 125 g ai/ha, scale 0 to 100): 40
- Plant response rating, Bromegrass, Downy (downy bromegrass; [1]): 40
- Plant response rating, Bromegrass, Downy (downy bromegrass; [3]): 90
- Plant response rating, Canarygrass (canarygrass; [4]): 40
- Plant response rating, Canarygrass (canarygrass; [5]): 35
- Plant response rating, Canarygrass (canarygrass; [6]): 20
- Plant response rating, Canarygrass (canarygrass; [7]): 30
- Plant response rating, Oat, Wild (wild oat; 125 g ai/ha): 45
- Plant response rating, Oat, Wild (wild oat; 62 g ai/ha): 35
- Plant response rating, Chickweed (common chickweed; 62 g ai/ha, scale 0 to 100): 75
- Plant response rating, Chickweed (common chickweed; 125 g ai/ha, scale 0 to 100): 95
- Plant response rating, Chickweed (common chickweed; [1]): 95
- Plant response rating, Chickweed (common chickweed; [3]): 100
- Plant response rating, Nutsedge, Purple (purple nutsedge; 62 g ai/ha, scale 0 to 100): 60

Compound: Cc1nn(C(C)(C)C)nc1C(=O)Nc1cccc(C(=O)N2CC=CC2)c1 [Compound 393]
- Plant response rating, Blackgrass (blackgrass; [4]): 65
- Plant response rating, Blackgrass (blackgrass; [5]): 60
- Plant response rating, Blackgrass (blackgrass; [6]): 55
- Plant response rating, Blackgrass (blackgrass; [7]): 60
- Plant response rating, Spiderwort (tropical spiderwort; 125 g ai/ha, scale 0 to 100): 100
- Plant response rating, Spiderwort (tropical spiderwort; [1]): 100
- Plant response rating, Spiderwort (tropical spiderwort; [3]): 100
- Plant response rating, Wheat (wheat; 125 g ai/ha): 40
- Plant response rating, Wheat (wheat; 62 g ai/ha): 35
- Plant response rating, Goosegrass (goosegrass; 62 g ai/ha, scale 0 to 100): 10
- Plant response rating, Goosegrass (goosegrass; 125 g ai/ha, scale 0 to 100): 50
- Plant response rating, Goosegrass (goosegrass; [1]): 95
- Plant response rating, Goosegrass (goosegrass; [3]): 95
- Plant response rating, Barley, Winter (winter barley; [8]): 35
- Plant response rating, Barley, Winter (winter barley; [4]): 35
- Plant response rating, Barley, Winter (winter barley; [6]): 20
- Plant response rating, Barley, Winter (winter barley; [9]): 35
- Plant response rating, Morningglory (pitted morningglory; 62 g ai/ha, scale 0 to 100): 0
- Plant response rating, Morningglory (pitted morningglory; 125 g ai/ha, scale 0 to 100): 60
- Plant response rating, Morningglory (pitted morningglory; [1]): 95
- Plant response rating, Morningglory (pitted morningglory; [3]): 95
- Plant response rating, Johnsongrass (johnsongrass; 62 g ai/ha, scale 0 to 100): 30
- Plant response rating, Johnsongrass (johnsongrass; 125 g ai/ha, scale 0 to 100): 60
- Plant response rating, Johnsongrass (johnsongrass; [1]): 60
- Plant response rating, Johnsongrass (johnsongrass; [3]): 80
- Plant response rating, Mallow (common mallow; 62 g ai/ha, scale 0 to 100): 10
- Plant response rating, Mallow (common mallow; 125 g ai/ha, scale 0 to 100): 60
- Plant response rating, Mallow (common mallow; [1]): 95
- Plant response rating, Mallow (common mallow; [3]): 95
- Plant response rating, Bromegrass, Downy (downy bromegrass; 62 g ai/ha, scale 0 to 100): 0
- Plant response rating, Bromegrass, Downy (downy bromegrass; 125 g ai/ha, scale 0 to 100): 10
- Plant response rating, Bromegrass, Downy (downy bromegrass; [1]): 60
- Plant response rating, Bromegrass, Downy (downy bromegrass; [3]): 80
- Plant response rating, Canarygrass (canarygrass; [4]): 65
- Plant response rating, Canarygrass (canarygrass; [5]): 65
- Plant response rating, Canarygrass (canarygrass; [6]): 60
- Plant response rating, Canarygrass (canarygrass; [7]): 65
- Plant response rating, Oat, Wild (wild oat; 125 g ai/ha): 65
- Plant response rating, Oat, Wild (wild oat; 62 g ai/ha): 55
- Plant response rating, Chickweed (common chickweed; 125 g ai/ha, scale 0 to 100): 60
- Plant response rating, Chickweed (common chickweed; [1]): 100
- Plant response rating, Chickweed (common chickweed; [3]): 100
- Plant response rating, Nutsedge, Purple (purple nutsedge; [1]): 20
- Plant response rating, Nutsedge, Purple (purple nutsedge; [3]): 100

— US20060069132A1, “Azolecarboxamide herbicides” (priority 2004, published 2006)
